How the values were obtained:
[1] = tested on: antipsychotic-naïve Cebus Apella monkeys; assay: d-Amphetamine-induced behaviour (unrest, stereotypies, arousal), video rating; assay type: in vivo; settings: d-amphetamine 0.5 mg/kg
Protocol: Seven male Cebus Apella monkeys were used for evaluation the anti-amphetamine effect and the side effect profile of BuTAC. These monkeys were never before administered antipsychotics and had never experienced EPS, but had previously been administered amphetamine. For further evaluation of the EPS potential of BuTAC, the compound was tested in four male and female monkeys, all sensitized to drug-induced EPS by earlier chronic treatment with classical antipsychotic drugs.
All monkeys received all treatments with at least one week between tests and thus served as their own control. To avoid extended physical contact with the experimenter, the cages were reduced in sized by moving the back wall of the cage closer to the front wall to lightly immobilize the monkey while injecting the test substance in the thigh. This was done at 9 am at test days. After the appropriate pre-treatment time, the monkeys were videotaped in their cages at predefined time points after drug injection.
The rated primate behaviours and symptoms were the following: unrest, stereotypy, arousal, sedation and bradykinesia (Table 1). All monkeys were videotaped in 90-sec. sessions at specific time points throughout the test sessions. The videotapes were rated for amphetamine-induced behaviours and EPS by two experienced raters blinded to the treatment of the animal by means of a rating scale adapted from Peacock et al. and previously described by Andersen et al. (Table 1). In case of any discrepancy between the two ratings, the recording in question was re-evaluated and a rating agreed upon. The monkeys were videotaped at t = 30, 60, 90, 135, 150, 165, 180, 240, 300 min after BuTAC (or vehicle) administration. For the combination studies, d-amphetamine was injected at t = 120 min. Oral dyskinesia was measured in counts per 90 sec. The severity of other behaviours and symptoms were rated on a scale ranging from 0 (not present) to 6 (extreme presence).
For evaluation of anti-amphetamine effects, BuTAC was tested in doses of 0.001, 0.003, 0.01 mg/kg in combination with 0.5 mg/kg of d-amphetamine. BuTAC or peanut oil vehicle was injected s.c. at approximately 9 a.m. Pre-treatment time before s.c. injection of amphetamine was 120 min. For evaluation of side effects, BuTAC was tested alone at doses of 0.001, 0.003 and 0.01 mg/kg in antipsychotic-naïve monkeys and at doses of 0.003 and 0.01 mg/kg in monkeys sensitized to extrapyramidal side effects (EPS) by earlier long-term treatment with first generation antipsychotics. […] None of the animals were sacrificed.
Data from the experiments where BuTAC was administered alone collected at t = 60, 180, 300 min are presented. For the d-amphetamine / BuTAC study, data collected at t(amp) = 60, 120 and 180 min (t = 180, 240, 300 min) are reported. Data were analyzed for overall treatment effects at each time point by means of the non-parametric Friedman’s test for repeated measures. The Student Newman-Keuls comparison procedure was used to analyze for specific dose effects. For all tests, the accepted level of significance was p<0.05.

M2AChR = biological target: T1, M2AChR (Homo sapiens, UniProt P08172); assay: Competitive radioligand binding
T1 sequence (P08172 1-466): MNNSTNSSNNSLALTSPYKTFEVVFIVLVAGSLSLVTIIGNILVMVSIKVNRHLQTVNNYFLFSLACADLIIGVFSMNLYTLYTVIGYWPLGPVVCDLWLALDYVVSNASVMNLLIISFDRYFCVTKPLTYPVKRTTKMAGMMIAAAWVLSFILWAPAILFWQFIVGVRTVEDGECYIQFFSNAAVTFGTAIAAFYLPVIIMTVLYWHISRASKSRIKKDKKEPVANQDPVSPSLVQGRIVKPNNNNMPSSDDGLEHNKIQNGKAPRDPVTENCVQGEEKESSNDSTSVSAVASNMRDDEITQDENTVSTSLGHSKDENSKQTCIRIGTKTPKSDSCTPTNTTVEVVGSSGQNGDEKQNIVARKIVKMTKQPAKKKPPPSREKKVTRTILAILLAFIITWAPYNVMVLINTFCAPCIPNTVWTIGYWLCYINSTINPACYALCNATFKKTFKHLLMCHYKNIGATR

M5AChR = biological target: T2, M5AChR (Homo sapiens, UniProt P08912); assay: Competitive radioligand binding
T2 sequence (P08912 1-532): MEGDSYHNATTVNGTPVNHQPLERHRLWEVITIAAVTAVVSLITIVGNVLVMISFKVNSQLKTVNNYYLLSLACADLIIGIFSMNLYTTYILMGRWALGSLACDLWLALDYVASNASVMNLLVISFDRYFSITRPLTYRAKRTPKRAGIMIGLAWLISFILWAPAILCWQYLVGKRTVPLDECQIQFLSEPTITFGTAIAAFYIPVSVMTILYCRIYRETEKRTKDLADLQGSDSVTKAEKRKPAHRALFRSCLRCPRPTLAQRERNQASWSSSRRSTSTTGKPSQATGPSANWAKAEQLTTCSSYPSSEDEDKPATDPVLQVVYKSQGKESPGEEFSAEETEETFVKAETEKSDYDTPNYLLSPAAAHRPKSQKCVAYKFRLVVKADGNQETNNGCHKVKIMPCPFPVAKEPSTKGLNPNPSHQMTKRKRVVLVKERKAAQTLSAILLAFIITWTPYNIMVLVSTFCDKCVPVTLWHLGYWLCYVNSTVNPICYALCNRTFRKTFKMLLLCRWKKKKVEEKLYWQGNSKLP

M1AChR = biological target: T3, M1AChR (Homo sapiens, UniProt P11229); assay: Competitive radioligand binding
T3 sequence (P11229 1-460): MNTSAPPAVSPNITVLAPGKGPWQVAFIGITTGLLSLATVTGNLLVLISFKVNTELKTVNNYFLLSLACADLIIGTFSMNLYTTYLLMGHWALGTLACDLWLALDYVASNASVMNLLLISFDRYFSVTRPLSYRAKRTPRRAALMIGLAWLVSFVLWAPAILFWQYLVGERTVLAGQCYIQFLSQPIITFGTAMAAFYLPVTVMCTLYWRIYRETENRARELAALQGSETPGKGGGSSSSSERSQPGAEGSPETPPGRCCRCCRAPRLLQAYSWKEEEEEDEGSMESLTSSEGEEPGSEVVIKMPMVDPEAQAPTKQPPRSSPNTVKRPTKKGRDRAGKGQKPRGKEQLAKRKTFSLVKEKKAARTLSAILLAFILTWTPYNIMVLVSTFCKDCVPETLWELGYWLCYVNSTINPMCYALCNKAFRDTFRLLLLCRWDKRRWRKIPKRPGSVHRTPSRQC

[2] = BuTAC 0.003 mg/kg s.c., at 180 min
[3] = BuTAC 0.01 mg/kg s.c., at 120 and 180 min

| Compound | Effect on d-amphetamine-induced arousal ([1]; BuTAC 0.001 mg/kg s.c., at 60 min) | Effect on amphetamine-induced stereotypies [1, 2] | Effect on amphetamine-induced unrest [1, 2] | Effect on amphetamine-induced stereotypies [1, 3] | Effect on amphetamine-induced unrest [1, 3] | Effect on d-amphetamine-induced arousal ([1]; BuTAC 0.003 and 0.01 mg/kg s.c., at 60, 120 and 180 min) | Ki (M2AChR) | Ki (M5AChR) | Ki (M1AChR) |
| --- | --- | --- | --- | --- | --- | --- | --- | --- | --- |
| CCCCSc1nsnc1[C@H]1CN2CCC[C@H]1C2 [BuTAC, (5R,6R)-6-(3-butylthio-1,2,5-thiadiazol-4-yl)-1-azabicyclo[3.2.1]octane] | counteracted | significantly reduced | significantly counteracted | significantly reduced | significantly counteracted | counteracted |  |  |  |
| CCCSc1nsnc1[C@H]1CN2CCC[C@H]1C2 [PTAC, (5R,6R) 6-(3-propylthio-1,2,5-thiadiazol-4-yl)-1-azabicyclo-[3.2.1]-octane] |  |  |  |  |  |  | 3.8 nM | 0.372 nM | 1.05 nM |

Source: article PMC4399838, “Antipsychotic-Like Effect of the Muscarinic Acetylcholine Receptor Agonist BuTAC in Non-Human Primates” (PLoS ONE, 2015)
